The values that follow are results of earlier work, collected in US20090312435A1, “SUBSTITUTED PHENETHYLAMINES WITH SEROTONINERGIC AND/OR NOREPINEPHRINERGIC ACTIVITY” (AUSPEX PHARMACEUTICALS, INC, priority 2006, published 2009).

SMILES strings stand for the structures. “And” between values parts separate entries of the source, which are not always exact repeats. Equal values may be shown once. Read-outs that look alike come from different tables or passages of the source.

For `CN(C)CC(c1ccc(O)cc1)C1(O)CCCCC1` (centres unmarked) [O-desmethylvenlafaxine], for the setting “human, in vivo”, the “half-life (T1/2)” value is about 11 h.
For the compound `COc1ccc(C(CN(C)C)C2(O)CCCCC2)cc1` (racemic) [venlafaxine], the “half-life (T1/2)” value (in humans) was ~5 h and 3 to 7 h.
